Experimental data as given in the supplement of paper PMC10307832.

Experiments:
Test in all cases: relative viability (nuclei count vs DMSO), 5 days (fraction); higher = more cells survive
QS11 + Linsitinib = compound: C1CC2=C(C1)C=C(C=C2)OC3=NC(=C4C(=N3)N(C=N4)CC5=CC=C(C=C5)C6=CC=CC=C6)N[C@@H](CC7=CC=CC=C7)CO [QS11] + C[C@]1(O)C[C@@H](c2nc(-c3ccc4ccc(-c5ccccc5)nc4c3)c3c(N)nccn32)C1 [Linsitinib] (partner 1 µM)
In short: (§1)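 Medians of duplicate plates are given as relative viability. That measure is the nuclei count in treated wells divided by the count in vehicle wells. Counts were taken on 4× images of lung cancer cell lines in 1536-well plates, 5 days after pin-tool dosing the day after seeding with one drug alone or a fixed anchor-drug dose plus five library-drug doses (not always all listed) in √10 steps.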

QS11 + Olaparib = compound: C1CC2=C(C1)C=C(C=C2)OC3=NC(=C4C(=N3)N(C=N4)CC5=CC=C(C=C5)C6=CC=CC=C6)N[C@@H](CC7=CC=CC=C7)CO [QS11] + O=C(c1cc(Cc2n[nH]c(=O)c3ccccc23)ccc1F)N1CCN(C(=O)C2CC2)CC1 [Olaparib] (partner 8 µM)
In short: as §1

AZ628 + Alpelisib = compound: CC1=C(C=C(C=C1)NC(=O)C2=CC(=CC=C2)C(C)(C)C#N)NC3=CC4=C(C=C3)N=CN(C4=O)C [AZ628] + Cc1nc(NC(=O)N2CCC[C@H]2C(N)=O)sc1-c1ccnc(C(C)(C)C(F)(F)F)c1 [Alpelisib] (partner 2 µM)
In short: as §1

AZ628 + Dasatinib = compound: CC1=C(C=C(C=C1)NC(=O)C2=CC(=CC=C2)C(C)(C)C#N)NC3=CC4=C(C=C3)N=CN(C4=O)C [AZ628] + Cc1nc(Nc2ncc(C(=O)Nc3c(C)cccc3Cl)s2)cc(N2CCN(CCO)CC2)n1 [Dasatinib] (partner 0.075 µM)
In short: as §1

| Cell Line | relative viability (QS11 + Linsitinib; first compound 0.08 µM) | relative viability (QS11 + Linsitinib; first compound 0.253 µM) | relative viability (QS11 + Linsitinib; first compound 0.8 µM) | relative viability (QS11 + Linsitinib; first compound 2.53 µM) | relative viability (QS11 + Linsitinib; first compound 8 µM) | relative viability (QS11 + Olaparib; first compound 0.08 µM) | relative viability (QS11 + Olaparib; first compound 0.253 µM) | relative viability (QS11 + Olaparib; first compound 0.8 µM) | relative viability (QS11 + Olaparib; first compound 2.53 µM) | relative viability (QS11 + Olaparib; first compound 8 µM) | relative viability (AZ628 + Alpelisib; first compound 0.08 µM) | relative viability (AZ628 + Alpelisib; first compound 0.253 µM) | relative viability (AZ628 + Alpelisib; first compound 0.8 µM) | relative viability (AZ628 + Alpelisib; first compound 2.53 µM) | relative viability (AZ628 + Alpelisib; first compound 8 µM) | relative viability (AZ628 + Dasatinib; first compound 0.08 µM) | relative viability (AZ628 + Dasatinib; first compound 0.253 µM) | relative viability (AZ628 + Dasatinib; first compound 0.8 µM) | relative viability (AZ628 + Dasatinib; first compound 2.53 µM) | relative viability (AZ628 + Dasatinib; first compound 8 µM) |
| --- | --- | --- | --- | --- | --- | --- | --- | --- | --- | --- | --- | --- | --- | --- | --- | --- | --- | --- | --- | --- |
| NCI-H322M | 0.93 | 0.914 | 0.931 | 1.02 | 0.936 | 0.715 | 0.947 | 0.802 | 0.846 | 1.06 | 0.925 | 0.719 | 0.824 | 0.747 | 0.655 | 0.28 | 0.261 | 0.264 | 0.231 | 0.268 |
| NCI-H1755 | 1.07 | 0.577 | 0.595 | 0.814 | 0.871 | 0.856 | 0.876 | 0.665 | 0.767 | 0.648 | 0.923 | 0.878 | 0.887 | 0.822 | 0.792 | 0.459 | 0.39 | 0.417 | 0.381 | 0.326 |
| LU99A | 0.529 | 0.561 | 0.555 | 0.465 | 0.38 | 0.253 | 0.311 | 0.27 | 0.258 | 0.253 | 0.456 | 0.478 | 0.628 | 0.554 | 0.216 | 0.527 | 0.625 | 0.52 | 0.492 | 0.242 |
| HCC-44 | 0.79 | 0.647 | 0.532 | 0.549 | 0.531 | 1.05 | 1.09 | 0.597 | 0.989 | 0.987 | 0.754 | 0.796 | 0.801 | 0.68 | 0.705 |  |  |  |  |  |
| EBC-1 | 0.966 | 0.86 | 0.696 | 0.75 | 1.05 | 0.758 | 0.813 | 0.675 | 0.644 | 0.68 | 0.865 | 0.859 | 0.949 | 0.811 | 0.298 |  |  |  |  |  |
| NCI-H647 | 1.12 | 1.21 | 1.17 | 1.21 | 1.23 | 0.676 | 0.523 | 0.541 | 0.604 | 0.664 | 1.3 | 0.952 | 0.842 | 1.09 | 0.858 | 0.193 | 0.173 | 0.217 | 0.14 | 0.15 |
| NCI-H1734 | 0.897 | 0.988 | 0.851 | 0.825 | 0.848 | 0.625 | 0.649 | 0.608 | 0.587 | 0.507 | 0.658 | 0.595 | 0.571 | 0.619 | 0.498 | 0.424 | 0.552 | 0.525 | 0.511 | 0.349 |
| NCI-H1993 | 0.622 | 0.718 | 0.682 | 0.7 | 0.857 | 1.06 | 1.01 | 1.22 | 1.35 | 1.05 | 0.73 | 0.61 | 0.662 | 0.631 | 0.739 | 0.556 | 0.546 | 0.613 | 0.578 | 0.553 |
| NCI-H23 | 0.624 | 0.528 | 0.561 | 0.477 | 0.404 | 0.297 | 0.226 | 0.245 | 0.269 | 0.264 | 0.745 | 0.622 | 0.305 | 0.501 | 0.377 | 0.708 | 0.75 | 0.44 | 0.509 | 0.302 |
| NCI-H1623 |  |  |  |  |  |  |  |  |  |  |  |  |  |  |  | 0.554 | 0.447 | 0.301 | 0.493 | 0.374 |
| NCI-H2170 |  |  |  |  |  | 0.549 | 0.632 | 0.539 | 0.596 | 0.722 | 0.931 | 0.751 | 0.809 | 0.852 | 0.98 | 0.555 | 0.391 | 0.46 | 0.557 | 0.481 |
| NCI-H1703 | 1.1 | 0.48 | 1.06 | 0.752 | 0.611 | 0.411 | 0.363 | 0.597 | 0.501 | 0.551 | 0.216 | 0.2 | 0.215 | 0.213 | 0.181 |  |  |  |  |  |
| NCI-H1563 | 1.16 | 1.3 | 1.26 | 1.34 | 1.32 |  |  |  |  |  | 0.982 | 0.874 | 0.858 | 0.967 | 0.893 | 0.477 | 0.436 | 0.469 | 0.487 | 0.475 |
| Calu-6 | 0.971 | 0.936 | 0.762 | 0.921 | 1.21 | 0.626 | 0.613 | 0.603 | 0.638 | 0.59 | 0.937 | 0.835 | 0.416 | 0.541 | 0.171 |  |  |  |  |  |
| SW 900 |  |  |  |  |  | 0.941 | 1.03 | 0.615 | 0.739 | 0.511 |  |  |  |  |  | 1.1 | 0.466 | 0.59 | 0.528 | 0.547 |
| NCI-H1299 | 0.999 | 0.995 | 0.787 | 0.87 | 0.959 | 0.955 | 1.03 | 0.848 | 0.928 | 0.793 | 1.01 | 1.22 | 1.22 | 1.24 | 0.763 |  |  |  |  |  |
| NCI-H522 |  |  |  |  |  | 0.603 | 0.755 | 0.665 | 0.588 | 0.772 |  |  |  |  |  | 0.758 | 0.952 | 0.732 | 0.919 | 0.731 |
| NCI-H1650 |  |  |  |  |  | 0.825 | 0.816 | 0.719 | 0.686 | 0.898 |  |  |  |  |  | 0.319 | 0.366 | 0.318 | 0.296 | 0.249 |
| ChaGo-K-1 |  |  |  |  |  |  | 0.448 | 0.352 | 0.397 | 0.387 |  |  |  |  |  | 0.585 | 0.501 | 0.287 | 0.547 | 0.564 |
| NCI-H1648 |  |  |  |  |  | 0.812 | 0.413 | 0.727 | 0.77 | 1.09 |  |  |  |  |  |  |  |  |  |  |
| IA-LM | 0.548 | 0.417 | 0.29 | 0.389 | 0.601 | 1 | 0.924 | 0.706 | 0.741 | 0.78 | 0.805 | 0.731 | 0.552 | 0.586 | 0.207 |  |  |  |  |  |
